Measured values: US8158643B2, “Substituted diaza-spiro-pyridinone derivatives for use in MCH-1 mediated diseases” (Janssen Pharmaceutica N.V., priority 2006, dated 2012)

Assays:
human MCH-1 receptor = molecular target: T1, human MCH-1 receptor (Homo sapiens, UniProt Q99705); assay: Ca2+ mobilization experiment for the MCH-1 receptor (FLIPR), inhibition of MCH-induced Ca2+ response; assay type: cell-based; details: CHO cells stably expressing human MCH-1 receptor, submaximal MCH concentration, read-out: MCH-1 pIC50 (converted)
T1 construct: expressed in transfected cells
Procedure: The interaction of the compounds of Formula (I) with MCH-1 receptors was assessed in in vitro transient calcium (Ca^2+) mobilization assays in the fluorimetric imaging plate reader (FLIPR) format (Sullivan et al. 1999, Methods Mol Biol 114:125-133). In general, the natural agonist (MCH) is incubated with cells expressing the MCH-1 receptor, which elicits a concentration-dependent transient mobilization of Ca^2+ from internal stores. The interaction of the test compounds with the receptor is assessed in competition experiments. Various concentrations of the test compound are added to the incubation mixture containing the receptor-expressing cells and a submaximal concentration of MCH. The test compound in proportion to its antagonist potency and its concentration inhibits MCH-induced Ca^2+ mobilization.
Cell culture and membrane preparation. Chinese Hamster ovary cells (CHO) stably expressing the human MCH-1 receptor are grown in a 1:1 mixture of Dulbecco's Modified Eagles Medium (DMEM) and HAM's F12 medium including Glutamax™ (Invitrogen), supplemented with 10% heat-inactivated fetal bovine serum and 400 μg/ml geneticin.
Ca^2+ mobilization experiment for the MCH-1 receptor. Twenty-four hours before the experiment, MCH-1 receptor-expressing CHO cells are seeded in 20 μl (5,000 cells per well) into 384-well black wall, clear bottom microtiter plates (Costar). On the day of the experiment, 20 μl per well calcium assay kit containing 10 mM probenicide (Molecular Devices) is added. Cells are loaded for 90 min at 37° C. and 5% CO2 in a cell culture incubator. After loading, 20 μl of serial dilutions of the test compound are added and cells are further incubated for 20 min at room temperature in the dark. After 20 min, 20 μl of a submaximal MCH concentration is added and changes in intracellular calcium are recorded directly in a FLIPR III apparatus (Molecular devices).
Data analysis and results. Data from assays in the presence of compound were calculated as a percentage of total Ca^2+-responses measured in the absence of test compound. Inhibition curves, plotting percent of total Ca^2+-responses versus the log value of the concentration of the test compound, were automatically generated, and sigmoidal inhibition curves were fitted using non-linear regression. The pIC50 values of test compounds were derived from individual curves.

HERG potassium channel = molecular target: T2, HERG potassium channel (Homo sapiens, UniProt Q12809); assay: hERG-mediated K+ tail current, automated whole-cell patch clamp (PatchXpress 7000A) in HEK293 cells stably transfected with HERG; assay type: cell-based; details: measured after 5 minutes of drug application
T2 construct: expressed in transfected cells
Excerpt: To determine the extent of block the residual current was compared with vehicle pre-treatment.

T2 sequence (Q12809 whole entry): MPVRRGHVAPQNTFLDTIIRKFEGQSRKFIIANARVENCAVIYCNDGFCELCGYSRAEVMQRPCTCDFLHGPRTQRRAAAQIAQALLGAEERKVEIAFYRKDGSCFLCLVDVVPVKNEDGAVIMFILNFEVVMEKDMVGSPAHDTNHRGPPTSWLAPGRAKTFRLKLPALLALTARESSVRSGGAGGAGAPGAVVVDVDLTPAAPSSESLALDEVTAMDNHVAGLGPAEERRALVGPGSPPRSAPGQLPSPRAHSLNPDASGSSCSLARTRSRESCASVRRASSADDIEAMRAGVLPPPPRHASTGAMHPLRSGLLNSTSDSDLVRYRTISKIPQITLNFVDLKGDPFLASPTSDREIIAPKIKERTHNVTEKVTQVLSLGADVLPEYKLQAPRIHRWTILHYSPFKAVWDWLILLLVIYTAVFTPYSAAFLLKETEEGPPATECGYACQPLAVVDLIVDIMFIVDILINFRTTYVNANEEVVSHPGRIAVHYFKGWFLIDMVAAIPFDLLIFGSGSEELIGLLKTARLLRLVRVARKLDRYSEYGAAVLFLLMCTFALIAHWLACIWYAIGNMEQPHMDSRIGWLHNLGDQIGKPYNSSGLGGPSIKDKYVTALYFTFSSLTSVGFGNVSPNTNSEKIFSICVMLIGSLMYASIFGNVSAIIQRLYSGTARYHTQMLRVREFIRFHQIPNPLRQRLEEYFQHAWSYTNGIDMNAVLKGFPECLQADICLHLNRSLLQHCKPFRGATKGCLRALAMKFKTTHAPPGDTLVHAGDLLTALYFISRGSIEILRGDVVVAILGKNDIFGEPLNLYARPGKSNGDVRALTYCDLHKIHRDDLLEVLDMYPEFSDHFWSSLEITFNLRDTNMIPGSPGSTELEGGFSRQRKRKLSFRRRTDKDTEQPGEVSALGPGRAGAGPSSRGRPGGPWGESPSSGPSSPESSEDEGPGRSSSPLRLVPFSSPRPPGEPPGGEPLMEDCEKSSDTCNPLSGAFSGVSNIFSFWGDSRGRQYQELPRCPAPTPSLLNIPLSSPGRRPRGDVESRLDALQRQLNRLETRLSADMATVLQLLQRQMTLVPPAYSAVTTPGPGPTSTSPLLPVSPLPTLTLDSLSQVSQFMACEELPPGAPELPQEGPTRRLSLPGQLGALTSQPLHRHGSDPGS
T1 sequence (Q99705 whole entry): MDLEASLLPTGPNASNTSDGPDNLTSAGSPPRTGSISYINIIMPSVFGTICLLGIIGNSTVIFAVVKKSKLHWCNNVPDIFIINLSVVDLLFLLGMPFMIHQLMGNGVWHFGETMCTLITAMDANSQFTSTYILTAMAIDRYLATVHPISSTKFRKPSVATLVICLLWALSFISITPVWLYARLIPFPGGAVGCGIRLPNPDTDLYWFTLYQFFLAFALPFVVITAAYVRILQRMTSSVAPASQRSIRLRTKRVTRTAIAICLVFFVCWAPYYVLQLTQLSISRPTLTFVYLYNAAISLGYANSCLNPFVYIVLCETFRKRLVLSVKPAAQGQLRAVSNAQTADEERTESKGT

SMILES	IC50 (human MCH-1 receptor)	melting point	hERG-reduction (%) at 3 μM (HERG potassium channel)
O=c1cc(OCc2ccccc2)ccn1-c1ccc(N2CCC3(CC2)CNC3)cc1 [Compound 1-1]	0.0794 µM	–	–
O=c1cc(OCc2ccccc2)ccn1-c1ccc(N2CCC3(CCCNC3)CC2)cc1 [Compound 1-2]	0.0501 µM	141.5 °C	–
O=c1cc(OCc2ccccc2)ccn1-c1ccc(N2CCC3(CC2)CNCCO3)cc1 [Compound 1-3]	0.126 µM	–	–
O=c1cc(OCc2ccccc2)ccn1-c1ccc(N2CCCC3(CCNC3)C2)cc1 (stereo not drawn) [Compound 1-4]	0.0316 µM	–	–
O=c1cc(OCc2ccccc2)ccn1-c1ccc(N2CC3(CCNCC3)C2)cc1 [Compound 1-5]	0.0316 µM	203.2 °C	–
O=c1cc(OCc2ccccc2)ccn1-c1ccc(N2CCC3(CCCNC3)C2)cc1 (stereo not drawn) [Compound 1-6]	0.0251 µM	–	–
O=c1cc(OCc2ccccc2)ccn1-c1ccc(N2CCC3(CCNCC3)C2)cc1 [Compound 1-7]	0.0631 µM	236.3 °C	−1.8%
CCN1CCC2(CC1)CN(c1ccc(-n3ccc(OCc4ccccc4)cc3=O)cc1)C2 [Compound 1-8]	0.0631 µM	–	–
O=c1cc(OCc2ccccc2)ccn1-c1ccc(N2CC3(CCN(C4CC4)CC3)C2)cc1 [Compound 1-9]	0.1 µM	276.5 °C	–
O=C1CC2(CCNCC2)CN1c1ccc(-n2ccc(OCc3ccccc3)cc2=O)cc1 [Compound 1-10]	0.0794 µM	–	–
O=C1N(c2ccc(-n3ccc(OCc4ccccc4)cc3=O)cc2)CC12CCNCC2 [Compound 1-11]	0.0501 µM	–	–
O=c1cc(OCc2ccccc2)ccn1-c1ccc(N2CC3(CCNCC3)C2)cc1 [Compound 1-12]	0.0251 µM	231 °C	0.7%
CN1CCC2(CC1)CCN(c1ccc(-n3ccc(OCc4ccccc4)cc3=O)cc1)C2 [Compound 1-14]	0.0316 µM	–	–
Cc1cc(-n2ccc(OCc3ccccc3)cc2=O)ccc1N1CC2(CCNCC2)C1 [Compound 2-1]	0.0251 µM	164.6 °C	15.6%
COc1cc(-n2ccc(OCc3ccccc3)cc2=O)ccc1N1CC2(CCNCC2)C1 [Compound 2-2]	0.0398 µM	–	–
O=c1cc(OCc2ccccc2)ccn1-c1ccc(N2CC3(CCNCC3)C2)c(Cl)c1 [Compound 2-3]	0.0251 µM	–	–
CN1CCC2(CC1)CN(c1ccc(-n3ccc(OCc4ccccc4)cc3=O)cc1Cl)C2 [Compound 2-4]	0.0316 µM	–	–
O=c1cc(/C=C/c2ccccc2)ccn1-c1ccc(N2CC3(CCNCC3)C2)cc1 [Compound 3-1]	0.0631 µM	–	–
O=c1cc(OCc2ccc(F)cc2)ccn1-c1ccc(N2CC3(CCNCC3)C2)cc1 [Compound 3-2]	0.0398 µM	–	–
O=c1cc(COc2ccccc2)ccn1-c1ccc(N2CC3(CCNCC3)C2)cc1 [Compound 3-3]	0.501 µM	292.7 °C	–
